Drawing on patent publication US10450306B2, “Isoxazole analogs as FXR agonists and methods of use thereof” (Enanta Pharmaceuticals, Inc., priority 2016, dated 2019), this text covers Emax and EC50 for 34 compounds.

In this experiment the target is T1, human FXR (NR1H4) (Homo sapiens, UniProt Q96RI1).
T1 construct: host or cells: CHO (Chinese hamster ovary) reporter cells
T1 sequence (Q96RI1 1-486): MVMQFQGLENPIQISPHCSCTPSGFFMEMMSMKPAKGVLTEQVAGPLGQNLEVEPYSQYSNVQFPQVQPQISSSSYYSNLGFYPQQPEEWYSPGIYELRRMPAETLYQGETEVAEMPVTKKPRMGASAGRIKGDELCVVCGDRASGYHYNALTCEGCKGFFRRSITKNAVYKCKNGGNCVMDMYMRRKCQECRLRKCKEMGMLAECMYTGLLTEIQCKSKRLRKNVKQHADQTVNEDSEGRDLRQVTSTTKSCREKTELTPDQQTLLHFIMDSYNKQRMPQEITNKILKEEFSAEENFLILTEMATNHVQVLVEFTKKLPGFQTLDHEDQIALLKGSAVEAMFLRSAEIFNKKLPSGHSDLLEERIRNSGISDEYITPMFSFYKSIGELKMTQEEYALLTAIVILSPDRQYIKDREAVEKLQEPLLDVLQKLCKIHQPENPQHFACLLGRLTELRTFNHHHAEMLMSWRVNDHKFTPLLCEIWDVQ
The experiment is described as follows: Human FXR (NR1H4) Assay: Gal4 promoter driven luciferase reporter transactivation in CHO cells (Indigo Bioscience kit IB00601). On Efficacy (%): efficacy normalized to CDCA set as 100%. Format: cell-based. The note with it: for Emax: CHO, read-out: Efficacy (%); for EC50: Human FXR (NR1H4) reporter assay, potency ranges. The source says:
Human FXR (NR1H4) Assay Determination of a ligand mediated Gal4 promoter driven transactivation to quantify ligand binding mediated activation of FXR. FXR Reporter Assay kit purchased from Indigo Bioscience (Catalogue number: IB00601) to determine the potency and efficacy of compound developed by Enanta that can induce FXR activation. The principle application of this reporter assay system is to quantify functional activity of human FXR. The assay utilizes non-human mammalian cells, CHO (Chinese hamster ovary) cells engineered to express human NR1H4 protein (referred to as FXR). Reporter cells also incorporate the cDNA encoding beetle luciferase which catalyzes the substrates and yields photon emission. Luminescence intensity of the reaction is quantified using a plate-reading luminometer, Envision. Reporter Cells include the luciferase reporter gene functionally linked to an FXR responsive promoter. Thus, quantifying changes in luciferase expression in the treated reporter cells provides a sensitive surrogate measure of the changes in FXR activity. […] The assay is according to the manufacturer's instructions. In brief, the assay was performed in white, 96 well plates using final volume of 100 ul containing cells with different doses of compounds. Retrieve Reporter Cells from −80° C. storage. Perform a rapid thaw of the frozen cells by transferring a 10 ml volume of 37° C. cell recovery medium into the tube of frozen cells. Recap the tube of Reporter Cells and immediately place it in a 37° C. water bath for 5-10 minutes. Retrieve the tube of Reporter Cell Suspension from the water bath. Sanitize the outside surface of the tube with a 70% alcohol swab, and then transfer it into the cell culture hood. Dispense 90 μl of cell suspension into each well of the 96-well Assay Plate. Transfer the plate into 37° C. incubator, allowing the cells adherent to the bottom of the well. Dilute compounds in Dilution Plate (DP), and administrate to cells at Assay Plate (AP). DMSO content of the samples was kept at 0.2%. Cells were incubated for additional 22 hours before luciferase activities were measured. Thirty minutes before intending to quantify FXR activity, remove Detection Substrate and Detection Buffer from the refrigerator and place them in a low-light area so that they may equilibrate to room temperature. Remove the plate's lid and discard all media contents by ejecting it into an appropriate waste container. Gently tap the inverted plate onto a clean absorbent paper towel to remove residual droplets. Cells will remain tightly adhered to well bottoms. Add 100 ul of luciferase detection reagent to each well of the assay plate. Allow the assay plate to rest at room temperature for at least 5 minutes following the addition of LDR. Set the instrument (Envision) to perform a single 5 second “plate shake” prior to reading the first assay well. Read time may be 0.5 second (500 mSec) per well.
On the technique in general: In a reporter assay the amount or activity of a reporter protein is the signal.

With `O=CC1(S(=O)(=O)NC(=O)c2cc(F)c3nc(N4C5CCC4CC(NCc4c(-c6c(Cl)cccc6Cl)noc4C4CC4)C5)sc3c2)CC1` (centres unmarked) [Example 299], the Emax stood at 154% and the EC50 (in general, the concentration at which the effect is half-maximal) was 1 to 100 nM.

Consider `O=C(NS(=O)(=O)C1CC1)c1ccc2nc(N3C4CCC3CC(NCc3c(-c5ccccc5OC(F)(F)F)noc3C3CC3)C4)ccc2c1` (centres unmarked) [Example 900-15], for which the Emax turned out to be 82.5% and the EC50 lay within 1 to 100 nM.

With `Cc1cc(C(=O)O)cc2sc(N3C4CCC3CC(NCc3c(-c5c(Cl)cccc5Cl)noc3C3CC3)C4)nc12` (centres unmarked) [Example 8], the Emax was found to be 109% and the EC50 is < 1 nM.

Consider `[2H]C([2H])([2H])C1(S(=O)(=O)NC(=O)c2cc(F)c3nc(N4C5CCC4CC(NCc4c(-c6c(Cl)cccc6Cl)noc4C4CC4)C5)sc3c2)CC1` (centres unmarked) [Example 296], for which the Emax was 184% and the EC50 was < 1 nM.

In the case of `O=C(NS(=O)(=O)C1CC1)c1ccc2nc(N3C4CCC3CC(NCc3c(-c5c(Cl)cccc5Cl)noc3C3CC3)C4)sc2c1` (centres unmarked) [Example 201], the Emax was determined as 282% and the EC50 was < 1 nM.

Turning to `CC(C)Oc1cc(C(=O)NS(=O)(=O)N2CCCC2)cc2sc(N3CCC(NCc4c(-c5c(Cl)cccc5Cl)noc4C4CC4)CC3)nc12` [Example 400-5], the Emax is 110% and the EC50 is 1 to 100 nM.

For `CC1(S(=O)(=O)NC(=O)c2ccc3nc(N4CCC(NCc5c(-c6c(Cl)cccc6Cl)noc5C5CC5)CC4)sc3c2)CC1` [Example 305], the Emax was 139% and the concentration for a half-maximal effect (EC50) is 100 to 1000 nM.

Turning to `CN(C)S(=O)(=O)NC(=O)c1ccc2nc(N3CCC(NCc4c(-c5c(Cl)cccc5Cl)noc4C4CC4)CC3)sc2c1` [Example 282], the Emax came to 142% and the EC50 was in the range of 1 to 100 nM.

In the case of `O=C(NS(=O)(=O)C1CC1)c1ccc2nc(N3CCC(NCc4c(-c5ccccc5OC(F)(F)F)noc4C4CC4)CC3)sc2c1` [Example 791], the Emax amounted to 63% and the concentration for a half-maximal effect (EC50) is > 1000 nM.

Regarding `O=C(NS(=O)(=O)N1CCCC1)c1ccc2nc(N3C4CCC3CC(NCc3c(-c5c(Cl)cccc5Cl)noc3C3CC3)C4)sc2c1` (centres unmarked) [Example 227], the Emax is 256% and the EC50 was < 1 nM.

Consider `COC(=O)c1ccc2nc(N3C4CCC3CC(NCc3c(-c5c(Cl)cccc5Cl)noc3C3CC3)C4)c(Cl)nc2c1` (centres unmarked) [Example 199], for which the Emax was 58% and the concentration for a half-maximal effect (EC50) fell in the range of 100 to 1000 nM.

As for `CC(C)Oc1cc(C(=O)O)cc2sc(N3C4CCC3CC(NCc3c(-c5c(F)cccc5F)noc3C3CC3)C4)nc12` (centres unmarked) [Example 1426], the Emax worked out at 73.2% and the concentration giving a half-maximal response (EC50) was in the range of 100 to 1000 nM.

For the compound `O=C(O)c1cc(F)c2nc(N3C4CCC3CC(NCc3c(-c5ccccc5OC(F)(F)F)noc3C3CC3)C4)sc2c1` (centres unmarked) [Example 404], the Emax was found to be 88% and the concentration giving a half-maximal response (EC50) lay within 1 to 100 nM.

As to `COC(=O)c1ccc2nc(N3C4CCC3CC(NCc3c(-c5c(Cl)cccc5Cl)noc3C3CC3)C4)oc2c1` (centres unmarked) [Example 19], the Emax is 78% and the EC50 was 100 to 1000 nM.

As to `COC(=O)c1cc(OC(C)C)c2nc(N3C4CCC3CC(NCc3c(-c5ccccc5OC(F)(F)F)noc3C3CC3)C4)sc2c1` (centres unmarked) [Example 413], the Emax is 118% and the concentration for a half-maximal effect (EC50) was 1 to 100 nM.

With `O=C(O)c1ccc2cc(N3C4CCC3CC(NCc3c(-c5c(Cl)cccc5Cl)noc3C3CC3)C4)ccc2c1` (centres unmarked) [Example 50], the Emax was 186% and the EC50 is < 1 nM.

For the compound `CC(C)Oc1cc(C(=O)O)cc2sc(N3C4CCC3CC(NCc3c(-c5ccccc5OC(F)(F)F)noc3C3CC3)C4)nc12` (centres unmarked) [Example 414], the Emax was found to be 121% and the concentration giving a half-maximal response (EC50) is < 1 nM.

Turning to `COC(=O)c1cc2sc(N3C4CCC3CC(NCc3c(-c5c(Cl)cccc5Cl)noc3C3CC3)C4)nc2c2ccccc12` (centres unmarked) [Example 200-27], the Emax amounted to 28.3% and the half-maximal effective concentration (EC50) was 1 to 100 nM.

As to `COC(=O)c1cc(C2CC2)c2nc(N3C4CCC3CC(NCc3c(-c5ccccc5OC(F)(F)F)noc3C3CC3)C4)sc2c1` (centres unmarked) [Example 643], the Emax is 52% and the 50% effective concentration (EC50) is 1 to 100 nM.

`CC1(S(=O)(=O)NC(=O)c2ccc3nc(N4C5CCC4CC(NCc4c(C6CCC7(CC6)CC7)noc4C4CC4)C5)sc3c2)CC1` (centres unmarked) [Example 1202]: the Emax stood at 85.5% and the half-maximal effective concentration (EC50) was 1 to 100 nM.

Regarding `COC(=O)c1cc(C2CC2)c2nc(N3C4CCC3CC(NCc3c(-c5c(Cl)cccc5Cl)noc3C3CC3)C4)sc2c1` (centres unmarked) [Example 200-29], the Emax was 94% and the EC50 is 1 to 100 nM.

As to `O=C(O)c1cc(C2CC2)c2nc(N3C4CCC3CC(NCc3c(-c5ccccc5C(F)(F)F)noc3C3CC3)C4)sc2c1` (centres unmarked) [Example 1410], the Emax stood at 74.5% and the half-maximal effective concentration (EC50) is < 1 nM.

For the compound `CC(C)Oc1cc(C(=O)NS(=O)(=O)C2(C)CC2)cc2sc(N3CCC(NCc4c(-c5c(Cl)cccc5Cl)noc4C4CC4)CC3)nc12` [Example 400-4], the Emax is 97.5% and the EC50 lay in the range of 1 to 100 nM.

`CN(Cc1c(-c2c(Cl)cccc2Cl)noc1C1CC1)[C@H]1C[C@H]2CC[C@@H](C1)N2c1nc2ccc(C(=O)NS(=O)(=O)C3CC3)cc2s1` [Example 292]: the Emax is 212% and the EC50 fell in the range of 1 to 100 nM.

As for `O=C(O)c1cc2sc(N3C4CCC3CC(NCc3c(-c5c(Cl)cccc5Cl)noc3C3CC3)C4)nc2c2ccccc12` (centres unmarked) [Example 200-28], the Emax turned out to be 132% and the EC50 is < 1 nM.

On to `CN(Cc1c(-c2c(Cl)cccc2Cl)noc1C1CC1)C1CCN(c2nc3ccc(C(=O)O)cc3s2)CC1` [Example 186], for which the Emax was found to be 45% and the EC50 is > 1000 nM.

Turning to `CC1(S(=O)(=O)NC(=O)c2ccc3nc(N4C5CCC4CC(NCc4c(-c6ccccc6OC(F)(F)F)noc4C4CC4)C5)sc3c2)CC1` (centres unmarked) [Example 702], the Emax came out at 113% and the half-maximal effective concentration (EC50) is 1 to 100 nM.

As to `O=C(NS(=O)(=O)C1CC1)c1cnc2nc(N3C4CCC3CC(NCc3c(-c5ccccc5OC(F)(F)F)noc3C3CC3)C4)sc2n1` (centres unmarked) [Example 695], the Emax stood at 75% and the EC50 lay within 1 to 100 nM.

For `O=C(NS(=O)(=O)C1CC1)c1cc(F)c2nc(N3CCC(NCc4c(-c5ccccc5OC(F)(F)F)noc4C4CC4)CC3)sc2c1` [Example 900-3], the Emax came to 44.8% and the concentration for a half-maximal effect (EC50) was in the range of 100 to 1000 nM.

As for `Cc1cc2nc(N3C4CCC3CC(NCc3c(-c5c(Cl)cccc5Cl)noc3C3CC3)C4)sc2cc1C(=O)NS(=O)(=O)N1CCCCC1` (centres unmarked) [Example 400-12], the Emax stood at 115% and the EC50 was < 1 nM.

Take `Cc1c(C(=O)NS(=O)(=O)C2(C)CC2)ccc2nc(N3C4CCC3CC(NCc3c(-c5c(Cl)cccc5Cl)noc3C3CC3)C4)sc12` (centres unmarked) [Example 400-13]: the Emax was 83.3% and the EC50 is 1 to 100 nM.

In the case of `O=C(O)c1cc(F)c2nc(N3CCC(NCc4c(-c5c(Cl)cccc5Cl)noc4C4CC4)CC3)sc2c1` [Example 200-6], the Emax stood at 86.5% and the half-maximal effective concentration (EC50) fell in the range of 1 to 100 nM.

As for `O=C(O)c1ccc2nc(N3CCN(Cc4c(-c5c(Cl)cccc5Cl)noc4C4CC4)CC3)sc2c1` [Example 172], the Emax stood at 257% and the concentration giving a half-maximal response (EC50) fell in the range of 100 to 1000 nM.

Consider `CC(C)(C)OC(=O)CNC(=O)c1cc(F)c2nc(N3C4CCC3CC(NCc3c(-c5c(Cl)cccc5Cl)noc3C3CC3)C4)sc2c1` [Example 95, tert-butyl (2-((1R,3r,5S)-3-(((5-cyclopropyl-3-(2,6-dichlorophenyl)isoxazol-4-yl)methyl)amino)-8-azabicyclo[3.2.1]octan-8-yl)-4-fluorobenzo[d]thiazole-6-carbonyl)glycinate], for which the Emax is 128% and the 50% effective concentration (EC50) fell in the range of 1 to 100 nM.
